Source: patent publication US4216164A, “Ureide inhibitors of connective tissue destruction” (American Cyanamid Company, priority 1978, dated 1980)
Where “and” joins values, the source holds several entries; their conditions need not be identical. Identical values can stand only once. Counter-ions that a name gives are not always drawn. Blank lines part the entries; values can stand above or below the compound they belong to.

Legend:
corneal ulceration = conditions: human; cited from earlier work
collagenase = conditions: Thromb. Res. 1977, 10(4), 605-11; cited from earlier work
[1] = target: T1, human skin fibroblast collagenase (Homo sapiens, UniProt P03956); assay: Collagenase Assay, Test Code 006; format: biochemical; conditions: test conc.: 30 μg./ml.
T1 construct: endogenous in cells; host or cells: human skin fibroblasts
T1 sequence (P03956 100-469): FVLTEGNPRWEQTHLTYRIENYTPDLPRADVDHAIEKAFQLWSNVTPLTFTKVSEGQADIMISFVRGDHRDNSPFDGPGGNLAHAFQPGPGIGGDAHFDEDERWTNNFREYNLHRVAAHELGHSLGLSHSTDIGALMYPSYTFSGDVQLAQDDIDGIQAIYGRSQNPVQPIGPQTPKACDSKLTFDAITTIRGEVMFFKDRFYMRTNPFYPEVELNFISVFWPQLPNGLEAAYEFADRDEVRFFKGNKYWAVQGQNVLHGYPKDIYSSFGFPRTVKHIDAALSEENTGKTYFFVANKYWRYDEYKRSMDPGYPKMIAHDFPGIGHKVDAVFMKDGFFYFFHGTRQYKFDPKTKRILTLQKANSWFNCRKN
Protocol: (i) Collagenase Assay--Test Code 006
In a typical assay (total volume of 0.45 ml.), 100 μl. of the activated enzyme was added to the ^14 C-labeled collagen fibrils (250 μl.) followed by 100 μl. of 50 mM cacodylate, pH 7.4, containing 5 mM calcium chloride. After incubation at 37° C. for 16 hours, the tubes were centrifuged in a Beckman microfuge for five minutes at full speed. An aliquot (200 μl.) of the supernatant, representing collagenase digestion products of the fibril, was assayed for radioactivity. The effect of the test compound on collagen degradation by collagenase was examined as follows:
Appropriate blanks and trypsin controls were run in parallel.

[2] = target: T2, Gingival Crevicular Fluid Collagenase (Homo sapiens, UniProt P22894); assay: Crevicular Fluid Assay; format: biochemical; conditions: diseased crevicular fluid + 30 mcg./ml. compound; control 66 ± 9; p<0.0005
T2 construct: from tissue; host or cells: gingival crevicular fluid of a volunteer with periodontal disease
From the text: (§1) An active inhibitor would inhibit the degradation of the collagen fibril; (iii) Leukocyte Neutral Proteases Inhibitor Assay--This test measures the ability of neutral proteases derived from human leukocytes to degrade radiolabeled proteoglycans entrapped in polyacrylamide beads.
(ii) Crevicular Fluid Assay
Effect of Test Compounds on Gingival Crevicular Fluid Collagenase
Since studes by Golub, et al., Dental Res., 55, 1049 (1976) have shown that the crevicular collagenase plays a major role in the degradation of collagen in periodontal tissue, the effect of test compounds on collagen degradation by this system was examined. A volunteer with diagnosed periodontal disease was used. […] After one minute, the filter paper strip was removed and the volume of the gingival crevicular fluid was measured with the aid of the Periotron (Harco Electronics, Ltd., Winnipeg, Canada). The volume of the fluid gathered from the crevice by the filter paper strip is translated by a unique transducer onto a digital readout screen. […] After reading on the meter, 1 μl. of trypsin (1.5 μg./ml.) was added to the filter paper (to activate any latent collagenase present) and after five minutes at room temperature 1 μl. of aprotinin was added. […] The tubes were centrifuged as described above and a 200 μl. aliquot of the clear supernatant was assayed for radioactivity.

[3] = test system: neutral proteases derived from human leukocytes; assay: Leukocyte Neutral Proteases Inhibitor Assay; format: biochemical; conditions: for Percent Inhibition of Neutral Protease Activity ^3 H: ^3 H label; for Percent Inhibition of Neutral Protease Activity ^35 S: ^35 S label
Protocol: as §1
(iii) Leukocyte Neutral Proteases Inhibitor Assay
Assays of Leukocyte Neutral Proteases Using ^3 H/^35 S Labeled Proteoglycans
This assay system contained (total volume of 1 ml.) 60 mM Tris-Cl, pH 7.4; 2.5 mM calcium chloride; 2.5 mM magnesium chloride; 2 mg. (dry weight) of polyacrylamide beads entrapped with labeled proteoglycans, and an aliquot of the leukocyte neutral protease preparation. The reaction mixture was incubated at 37° C. for 30 minutes in a shaking water bath. The reaction was terminated by the addition of 0.2 ml. of 5% HCl (v/v). After five minutes at room temperature, the mixture was centrifuged and the clear supernatant (0.6 ml.) was assayed for radioactivity. To determine the effect of the test compounds on degradation of proteoglycans by neutral proteases, various concentrations of the compounds were added to the reaction mixture. Appropriate blanks were included.

[4] = test system: fibroblast collagenase and leukocyte neutral protease; assay: Enzymatic Degradation of Collagen of Human Gingiva; format: biochemical; conditions: 37° C., 36 hours, control 102.3
Protocol: The test compounds are able to inhibit the degradation of collagen of gingival tissue. Dried pieces of human gingiva were incubated at 37° C. for 36 hours with fibroblast collagenase and leukocyte neutral protease in the presence of test compound (30 and 50 μg./ml.). Antibiotics were present to prevent bacterial growth. After incubation, the residual tissue was hydrolyzed in 6 N hydrochloric acid and the hydroxyproline content (collagen) was determined. When collagenase and neutral protease were added to human gingiva, approximately 100 μg of collagen/mg. dry tissue was digested. If the test compound was present, degradation of gingival collagen was inhibited.

corneal ulcerations = conditions: alkali burned rabbit; directly applied to corneal ulcerations; cited from earlier work

T2 sequence (P22894 101-467): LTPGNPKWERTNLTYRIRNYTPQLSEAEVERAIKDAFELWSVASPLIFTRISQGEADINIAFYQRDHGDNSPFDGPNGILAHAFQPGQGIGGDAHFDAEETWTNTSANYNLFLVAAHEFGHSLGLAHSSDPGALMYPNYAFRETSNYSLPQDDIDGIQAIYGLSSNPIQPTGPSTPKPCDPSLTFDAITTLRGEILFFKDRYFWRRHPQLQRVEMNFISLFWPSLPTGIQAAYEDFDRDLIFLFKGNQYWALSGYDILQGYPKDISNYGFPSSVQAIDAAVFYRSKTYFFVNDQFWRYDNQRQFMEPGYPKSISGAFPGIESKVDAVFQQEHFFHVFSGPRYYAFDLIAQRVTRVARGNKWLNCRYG

SMILES: N[C@@H](CS)C(=O)O [cysteine]
- treatment of acute and chronic corneal ulceration (corneal ulceration): effective

SMILES: Cc1ccc(C(=O)Nc2ccc(S(=O)(=O)O)c3cc(S(=O)(=O)O)cc(S(=O)(=O)O)c23)cc1NC(=O)c1cccc(NC(=O)Nc2cccc(C(=O)Nc3cc(C(=O)Nc4ccc(S(=O)(=O)O)c5cc(S(=O)(=O)O)cc(S(=O)(=O)O)c45)ccc3C)c2)c1 [Suramin]
- inhibition of the activity of collagenase (collagenase): not inhibiting the action of collagenase

- inhibition at 30 µg/mL [1]: 82%
SMILES: O=C(Nc1cccc(C(=O)Nc2ccc3cc(S(=O)(=O)O)cc(O)c3c2)c1)Nc1cccc(C(=O)Nc2ccc3cc(S(=O)(=O)O)cc(O)c3c2)c1 [6,6'-[Ureylenebis(m-phenylenecarbonylimino)]bis[4-hydroxy-2-naphthalenesulfonic acid]disodium salt]

- cpm Collagen Degraded/Unit Periotron Reading [2]: 16 ± 6 cpm
- mcg. of Collagen degraded per mg. of dry gingiva ([4]; neutral proteases plus 30 mcg./ml. compound): 60.4 mcg. per mg.
- mcg. of Collagen degraded per mg. of dry gingiva ([4]; neutral proteases plus 50 mcg./ml. compound): 27.4 mcg. per mg.
SMILES: O=C(Nc1cccc(C(=O)Nc2ccc3cc(S(=O)(=O)O)cc(O)c3c2)c1)Nc1cccc(C(=O)Nc2ccc3cc(S(=O)(=O)O)cc(O)c3c2)c1 [6,6'-[Ureylenebis(3,1-phenylenecarbonylimino)]bis[4-hydroxy-] [6,6'-[Ureylenebis(m-phenylenecarbonylimino)]bis[4-hydroxy-2-naphthalenesulfonic acid]disodium salt]
- Percent Inhibition of Neutral Protease Activity ^3 H ([3]; 0.5 mcg./ml.): 0%
- Percent Inhibition of Neutral Protease Activity ^35 S ([3]; 0.5 mcg./ml.): 0%
- Percent Inhibition of Neutral Protease Activity ^3 H ([3]; 1.0 mcg./ml.): 17%
- Percent Inhibition of Neutral Protease Activity ^35 S ([3]; 1.0 mcg./ml.): 31%
- Percent Inhibition of Neutral Protease Activity ^3 H ([3]; 2.0 mcg./ml.): 21%
- Percent Inhibition of Neutral Protease Activity ^35 S ([3]; 2.0 mcg./ml.): 37%
- Percent Inhibition of Neutral Protease Activity ^3 H ([3]; 5.0 mcg./ml.): 47%
- Percent Inhibition of Neutral Protease Activity ^35 S ([3]; 5.0 mcg./ml.): 74%
- Percent Inhibition of Neutral Protease Activity ^3 H ([3]; 10.0 mcg./ml.): 63%
- Percent Inhibition of Neutral Protease Activity ^35 S ([3]; 10.0 mcg./ml.): 91%

SMILES: CC(=O)N[C@@H](CS)C(=O)O [acetylcysteine]
- frequency of ulceration (corneal ulcerations): reduce the frequency of ulceration
- treatment of acute and chronic corneal ulceration (corneal ulceration): effective

SMILES: O=C([O-])CN(CCN(CC(=O)[O-])CC(=O)[O-])CC(=O)[O-].[Ca+2].[Ca+2] [Calcium ethylenediaminetetraacetate]
- frequency of ulceration (corneal ulcerations): reduce the frequency of ulceration

- % Inhibition of Collagenase [1]: 82% and 81%
SMILES: O=C(Nc1cccc(C(=O)Nc2ccc3cc(S(=O)(=O)O)cc(O)c3c2)c1)Nc1cccc(C(=O)Nc2ccc3cc(S(=O)(=O)O)cc(O)c3c2)c1 [6,6'-[Ureylenebis(3,1-phenylenecarbonylimino)]bis[4-hydroxy-] [6,6'-[Ureylenebis(m-phenylenecarbonylimino)]bis[4-hydroxy-2-naphthalenesulfonic acid]tetrasodium salt]

- inhibition at 30 µg/mL [1]: 95%
SMILES: O=C(Nc1ccc(C(=O)Nc2ccc3cc(S(=O)(=O)O)cc(O)c3c2)cc1)Nc1ccc(C(=O)Nc2ccc3cc(S(=O)(=O)O)cc(O)c3c2)cc1 [6,6'-[Ureylenebis(p-phenylenecarbonylimino)]bis[4-hydroxy-2-naphthalenesulfonic acid]tetrasodium salt]

SMILES: Cc1cc(-c2ccc(/N=N/c3c(S(=O)(=O)O)cc4cc(S(=O)(=O)O)cc(N)c4c3O)c(C)c2)ccc1/N=N/c1c(S(=O)(=O)O)cc2cc(S(=O)(=O)O)cc(N)c2c1O [trypan blue]
- inhibition of the activity of collagenase (collagenase): inhibiting the activity of collagenase
